The values below come from ChEMBL document CHEMBL1157457, “Alstilobanines A-E, new indole alkaloids from Alstonia angustiloba” (2008).

For this experiment, the system named is Aorta. Description: Vasorelaxation activity against phenylephrine-stimulated contraction in Wistar rat thoracic aorta at 30 uM. Also noted: scale not given: the % may be the effect or the level left. Format: functional.
In turn, `COC(=O)[C@@]12COCC[C@H]3[C@@H]1CC[N@@+](C)([O-])[C@H]3c1c2[nH]c2ccccc12` [ALSTILOBANINE B] showed an Activity of 21.2%.

For `COC(=O)[C@@]1(c2cc3ccccc3[nH]2)COCC=C2C[N@+](C)([O-])CC[C@@H]21` [ALSTILOBANINE D], the Activity was determined as 10%. The compound `COC(=O)[C@]12COCC[C@@H]3[C@H](c4c1[nH]c1ccccc41)N(C)CC[C@@H]32` [UNDULIFOLINE] registered an Activity of 33.3%.

`O=C(O)[C@@]12COCC=C3CN(CC[C@@H]31)Cc1c2[nH]c2ccccc12` [ALSTONAMIC ACID]: the Activity was 35%. Compound `COC(=O)[C@@]12COCC[C@@H]3[C@@H](NCC[C@@H]31)c1c2[nH]c2ccccc12` [ALSTILOBANINE C] gave an Activity of 28%. The compound `COC(=O)[C@@]1(c2cc3ccccc3[nH]2)COCC=C2CN(C)CC[C@@H]21` [6,7-SECO-ANGUSTILOBINE B] showed an Activity of 7%. To `COC(=O)[C@]1(CO)c2[nH]c3ccccc3c2[C@@H](C)[C@]2(O)CNCC[C@@H]21` [ALSTILOBANINE A] belongs 44.3%; to `COC(=O)[C@@]12COC[C@H](c3c1[nH]c1ccccc31)[C@]1(O)CNCC[C@@H]12` [ALSTILOBANINE E], 6.8%.
